Assay results as given in patent US11167007B2, “FOXM1 modulators and uses thereof” (City of Hope, priority 2016, dated 2021).

How the values were obtained:
AR-FOXM1 co-localization = format: cell-based, murine; conditions: GT1-7 CARY cells, 24 hours, FIG. 4B
Protocol: Cells were fixed in 2% paraformaldehyde prior to incubating with primary antibody (FOXM1: mouse, AbCam) overnight at 4° C. Following washing, secondary antibody (Alexa 954 goat anti-mouse, Invitrogen) was applied for 45 minutes at 37° C. After washing, slides were mounted and analyzed using a confocal microscope (Zeiss). The coloc-2 Image J plug-in (Fiji) was used to quantify co-localization of AR and FOXM1 from three independent samples using both Li's Intensity Correlation Quotient (ICQ) and Manders split coefficients co-localization values. One-way analysis of variance was applied to determine statistical significant among groups, where p<0.05 was considered significant.

FOXM1 [1] = assay: Immunohistochemistry of FOXM1 in spinal cord; format: in vivo, rat; conditions: rats, FIG. 5C
Protocol: (§1) Animals and Drugs. This study was carried out in strict accordance with the recommendations in the Guide for the Care and Use of Laboratory Animals of the National Institutes of Health. All experiments were performed under the IUCAC approval of City of Hope. Animals were purchased from Jackson Laboratory (Bar Harbor, Main). For the pilot pharmacokinetic experiment, nine male Sprague Dawley rats (n=3) were administered 1, 10, or 100 mg/kg intraperitoneal injections thrice per week for four weeks. One hour following the final dose, blood and spinal fluid were collected and analyzed by mass spectrometry. […] Following a treatment period of 7 days, rats were euthanized and organs harvested, weighed and processed for quantitative RT-PCR.
Immunohistochemistry. […] A veterinary pathologist, blinded to the identity of the treatment groups, scored the spinal cord sections based on the intensity of FOXM1 expression, which was typically uniform across the entirety of a section, creating a scale ranging from 0-2 in both white matter and grey matter. […] As a secondary quantification method, Image J was used to determine pixel density of FOXM1 staining. […]
Intact and castrate cohorts were included as controls. […] As a secondary quantification method, Image J was used to determine pixel density of FOXM1 staining. […]

FOXM1 [2] = target: T1, FOXM1 (Rattus norvegicus, UniProt P97691); assay: RT-qPCR of FOXM1 target gene transcripts in spinal cord; format: in vivo; conditions: rats, compared to intact controls, FIG. 5G
T1 construct: from tissue; host or cells: Sprague Dawley rat spinal cord
T1 sequence (P97691 1-759): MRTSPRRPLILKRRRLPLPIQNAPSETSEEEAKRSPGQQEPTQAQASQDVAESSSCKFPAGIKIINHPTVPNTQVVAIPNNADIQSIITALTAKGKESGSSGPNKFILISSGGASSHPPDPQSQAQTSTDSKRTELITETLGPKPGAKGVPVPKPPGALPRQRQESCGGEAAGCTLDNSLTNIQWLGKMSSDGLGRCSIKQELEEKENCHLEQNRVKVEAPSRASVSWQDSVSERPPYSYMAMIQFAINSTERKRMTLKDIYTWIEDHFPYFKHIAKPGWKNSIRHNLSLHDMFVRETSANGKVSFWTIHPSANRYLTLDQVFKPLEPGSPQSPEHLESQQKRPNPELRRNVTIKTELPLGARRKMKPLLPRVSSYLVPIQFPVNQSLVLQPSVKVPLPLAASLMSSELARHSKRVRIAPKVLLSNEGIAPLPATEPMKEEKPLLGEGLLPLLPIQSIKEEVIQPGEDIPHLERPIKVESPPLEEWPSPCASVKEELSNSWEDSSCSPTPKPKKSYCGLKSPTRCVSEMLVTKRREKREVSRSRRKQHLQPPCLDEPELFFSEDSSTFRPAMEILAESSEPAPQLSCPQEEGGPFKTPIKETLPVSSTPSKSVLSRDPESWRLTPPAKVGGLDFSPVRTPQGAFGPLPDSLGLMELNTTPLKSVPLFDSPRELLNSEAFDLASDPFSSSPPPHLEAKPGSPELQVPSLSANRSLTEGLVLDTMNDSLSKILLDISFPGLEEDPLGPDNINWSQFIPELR
Protocol: as §1, with “spectrometry. For the efficacy experiment, rats were divided into 3 groups (n=7) as follows: intact, castrated, and thiostrepton.” for “spectrometry.”
qRT-PCR. The quantitative RT-PCR method has been described by Jones et al, ACS Chem Biol, 3(7):412-8 (2008). […] Differences between experimental (x) and control (y) samples were normalized to RPL19 transcript levels (androgen unresponsive) and determined with the following calculation: (2^(Ctsgene1-Ctygene1))/(2^(CtxRPL19-CtyRPL19)) One-way analysis of variance was applied to determine statistical significant among groups, where p<0.05 was considered significant. […]

C=C(NC(=O)C(=C)NC(=O)c1csc(C2=N[C@@H]3c4csc(n4)[C@H]4NC(=O)c5csc(n5)[C@H]([C@](C)(O)[C@@H](C)O)NC(=O)[C@H]5CSC(=N5)/C(=C/C)NC(=O)[C@H]([C@@H](C)O)NC(=O)c5csc(n5)[C@]3(CC2)NC(=O)[C@H](C)NC(=O)C(=C)NC(=O)[C@H](C)NC(=O)[C@H]([C@@H](C)CC)N[C@@H]2C=Cc3c([C@H](C)O)cc(nc3[C@H]2O)C(=O)O[C@@H]4C)n1)C(N)=O [thiostrepton]
association (co-localization) between FOXM1 and AR (AR-FOXM1 co-localization): not significantly affected | expression of FOXM1 in the spinal cord, scored by veterinary pathologist (FOXM1 [1]; 100 mg/kg per day, four weeks, IP osmotic pumps): significantly reduced | FOXM1 staining intensity, Image J pixel density (FOXM1 [1]; spinal cord, relative to untreated): lower intensity | transcript levels of FOXM1 target genes Ccndl and Sox2 (FOXM1 [2]): decreased
